This is an account of results in ChEMBL document CHEMBL5029164, “JNJ-67569762, A 2-Aminotetrahydropyridine-Based Selective BACE1 Inhibitor Targeting the S3 Pocket: From Discovery to Clinical Candidate” (J Med Chem, 2021).

pIC50: −log10 of the molar value. The source made the active and inactive calls. The rule behind the calls is not given here. Bounds are passed on as bounds.

Data set [1] has as its target T1, Beta-secretase 1 (Homo sapiens, UniProt P56817). The data set is described as follows: Inhibition of BACE1 (1 to 454 residues) (unknown origin) using APP harboring Swedish Lys-Met/Asn-Leu mutant-derived peptide as substrate by FRET assay.
The target in a further data set is T2, Beta-secretase 2 (Homo sapiens, UniProt Q9Y5Z0).
T2 sequence (Q9Y5Z0 whole entry): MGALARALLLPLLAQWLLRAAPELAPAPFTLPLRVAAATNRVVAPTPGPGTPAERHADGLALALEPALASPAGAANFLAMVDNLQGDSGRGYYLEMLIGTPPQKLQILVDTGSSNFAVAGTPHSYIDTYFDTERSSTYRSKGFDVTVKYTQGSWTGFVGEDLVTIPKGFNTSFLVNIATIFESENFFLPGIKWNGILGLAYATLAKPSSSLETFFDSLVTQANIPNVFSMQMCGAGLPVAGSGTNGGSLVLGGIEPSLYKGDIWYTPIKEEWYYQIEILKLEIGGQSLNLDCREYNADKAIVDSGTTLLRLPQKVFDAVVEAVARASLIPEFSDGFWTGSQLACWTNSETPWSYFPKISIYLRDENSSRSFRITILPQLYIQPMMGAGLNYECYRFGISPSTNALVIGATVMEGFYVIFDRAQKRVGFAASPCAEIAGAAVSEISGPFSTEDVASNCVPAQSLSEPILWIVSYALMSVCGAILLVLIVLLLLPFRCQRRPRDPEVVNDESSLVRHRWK
The data set is described as follows: Inhibition of BACE2 (unknown origin) using APP harboring Swedish Lys-Met/Asn-Leu mutant-derived peptide as substrate incubated for 2 hrs by FRET assay.

For data set [2], the target named is T1, Beta-secretase 1. The data set is described as follows: Inhibition of BACE1 in human […] cells expressing wild type APP695 assessed as reduction in amyloid beta 42 secretion incubated for 18 hrs by sandwich ELISA. The data set is classed as cell-based, SKNBE2. Background: An ELISA detects its analyte on a solid surface through an enzyme-linked reagent.

Data set [3] can be described thus: Metabolic stability in human liver microsomes assessed as intrinsic clearance. The data set is classed as ADME, Microsome. The following applies: read-out: CLH. Background: Liver microsomes are vesicles of endoplasmic reticulum, rich in cytochrome P450 enzymes.
For another data set, the species on record is Homo sapiens. The data set is described as follows: Selectivity index, ratio of IC50 for inhibition of BACE2 (unknown origin) to IC50 for inhibition of BACE1 (1 to 454 residues) (unknown origin).
Data set [4] in a line: Glutathione reactivity in human liver microsomes. The data set is classed as ADME.
Data set [5] in a line: Cyanide reactivity in human liver microsomes. The data set is classed as ADME.
For a further data set, the system named is Mus musculus. The data set is described as follows: In vivo inhibition of BACE1 in C57BL/6J mouse assessed as reduction in plasma SEZ6L level at 3.5 to 52 mg/kg,/day administered via diet for 21 days. The following applies: dose 3.5-52 mg/kg, time 21.0 day. The data set is classed as functional, organism-based.

T1 sequence (P56817 whole entry, the tested form may be a part): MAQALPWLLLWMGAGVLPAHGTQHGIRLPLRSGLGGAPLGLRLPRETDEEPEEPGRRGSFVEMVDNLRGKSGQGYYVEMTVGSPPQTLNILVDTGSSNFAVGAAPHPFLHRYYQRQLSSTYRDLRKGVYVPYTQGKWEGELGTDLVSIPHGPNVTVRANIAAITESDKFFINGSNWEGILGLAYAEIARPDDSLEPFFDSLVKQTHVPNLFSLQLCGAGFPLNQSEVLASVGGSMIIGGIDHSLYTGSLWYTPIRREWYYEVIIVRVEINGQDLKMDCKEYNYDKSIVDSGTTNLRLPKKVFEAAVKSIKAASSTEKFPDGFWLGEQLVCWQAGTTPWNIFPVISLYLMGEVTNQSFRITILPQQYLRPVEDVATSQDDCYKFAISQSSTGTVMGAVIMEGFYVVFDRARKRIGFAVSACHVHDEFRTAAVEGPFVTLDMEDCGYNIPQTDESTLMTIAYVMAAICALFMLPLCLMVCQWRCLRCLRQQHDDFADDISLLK

The pIC50 is the IC50 on a negative log10 scale, so that one unit is a factor of ten. Consider `CC(C)S(=O)(=O)[C@]1(C)CC[C@@](CF)(c2cc(NC(=O)c3cc4c(cn3)OC(F)(F)O4)ccc2F)N=C1N`, for which the pIC50 on Beta-secretase 1 [1] is 8.00; against Beta-secretase 2 it was 6.33; at Beta-secretase 1 [2], 8.17. The microsomal CLint in data set [3] was < 7.7 µL/min/mg. For the same compound, in the data set filed under Homo sapiens, the Ratio IC50 came to 46.
For `C[C@@]1(S(C)(=O)=O)CC[C@@](CF)(c2cc(NC(=O)c3cc4c(cn3)OCCCO4)ccc2F)N=C1N`, in that order: 7.55, 5.94, 7.12, 16.7 µL/min/mg and 41.
Turning to `C[C@@]1(S(C)(=O)=O)CC[C@@](CF)(c2cc(NC(=O)c3cnc(OCF)cn3)ccc2F)N=C1N`, the values for the negative logarithm of the IC50 (pIC50) on Beta-secretase 1 [1], at Beta-secretase 2 and on Beta-secretase 1 [2] were 8.70, 7.80 and 8.64, respectively.
Take `C[C@@]1(S(C)(=O)=O)CC[C@@](CF)(c2cc(NC(=O)c3cc4c(cn3)OC(F)(F)CO4)ccc2F)N=C1N`: the pIC50 on Beta-secretase 1 [1] is 8.85. In data set [3], the microsomal CLint is < 7.7 µL/min/mg. For the same compound, the values for the Activity result in data set [4] and in data set [5] were “Not Active” and “Active”, respectively. In addition, in the data set filed under Homo sapiens, the Ratio IC50 was found to be 48.
As to `[2H]C1([2H])Oc2cnc(C(=O)Nc3ccc(F)c([C@]4(CF)CC[C@@](C)(S(C)(=O)=O)C(N)=N4)c3)cc2OC1([2H])[2H]`, in data set [3], the microsomal CLint is 7.9 µL/min/mg. Moreover, the Activity entry in data set [4] was “Not Active”; in data set [5], “Active”.
As to `C[C@@]1(S(C)(=O)=O)CC[C@@](CF)(c2cc(NC(=O)c3cc4c(cn3)OCO4)ccc2F)N=C1N`, the pIC50 against Beta-secretase 1 [1] is 8.64; at Beta-secretase 2, 7.33; at Beta-secretase 1 [2] it was 7.96. In addition, the microsomal CLint in data set [3] was determined as 36.4 µL/min/mg.
Turning to `C[C@@]1(c2cc(NC(=O)c3ccc(C#N)cn3)ccc2F)C[C@@H](C(F)(F)F)OC(N)=N1`, the inhibition entry with Mus musculus is “Active”.
Consider `C[C@@]1(S(C)(=O)=O)CC[C@@](CF)(c2cc(NC(=O)c3cc4c(cn3)OC(F)(F)O4)ccc2F)N=C1N`, for which, in data set [3], the microsomal CLint was < 7.7 µL/min/mg. Besides, the Activity entry in data set [4] was “Not Active”; in data set [5], “Active”. For the same compound, the Ratio IC50 in the data set listed under Homo sapiens amounted to 38.
With `C[C@@]1(S(C)(=O)=O)CC[C@@](CF)(c2cc(NC(=O)c3cc4c(cn3)OCCO4)ccc2F)N=C1N`, the pIC50 on Beta-secretase 1 [1] is 8.64; on Beta-secretase 2 it was 6.47; at Beta-secretase 1 [2], 8.52. Moreover, the microsomal CLint in data set [3] is 11.3 µL/min/mg. For the same compound, the figures for the Activity result in data set [4] and in data set [5] were “Not Active” and “Active”, respectively. Besides, the Ratio IC50 in the data set filed under Homo sapiens was found to be 145; in the data set filed under Homo sapiens (tested as the 2H-labelled form), 102.
For the compound `C[C@@]1(S(C)(=O)=O)CC[C@@](CF)(c2cc(NC(=O)c3ccc(F)cn3)ccc2F)N=C1N`, the pIC50 is 8.51 against Beta-secretase 2 and 8.48 on Beta-secretase 1 [2]. Also, the microsomal CLint in data set [3] was < 7.7 µL/min/mg.
As for `COc1cc(C(=O)Nc2ccc(F)c([C@]3(CF)CC[C@@](C)(S(C)(=O)=O)C(N)=N3)c2)ncn1`, the pIC50 against Beta-secretase 1 [1] is 8.02; against Beta-secretase 2, 6.72; at Beta-secretase 1 [2], 7.82. Besides, the microsomal CLint in data set [3] is < 7.7 µL/min/mg. Further, the Ratio IC50 in the data set filed under Homo sapiens was found to be 19.
Consider `CCc1cc([C@]2(c3ccc(F)c(-c4cccnc4C(F)F)c3)N=C(N)N(C)C2=O)cc(CC)n1`, for which the pIC50 at Beta-secretase 1 [1] is 8.00; against Beta-secretase 2, 5.17.
